Reference: ChEMBL document CHEMBL3425453, “Luciferin and derivatives as a DYRK selective scaffold for the design of protein kinase inhibitors” (Eur J Med Chem, 2015)

Target: Cyclin-dependent kinase 2 (Homo sapiens) (UniProt P24941)

## O=C(O)[C@H]1CSC(c2ccc3cc(O)ccc3n2)=N1
  Tm: 43.4 °C

## O=C(O)[C@H]1CSC(c2ccc3cccc(O)c3n2)=N1
  Tm: 43.9 °C
